According to ChEMBL document CHEMBL1255522, “Novel amides and esters prodrugs of olmesartan: Synthesis, bioconversion, and pharmacokinetic evaluation” (Bioorg Med Chem Lett, 2010):

Experiment: Stability in Sprague-Dawley rat plasma assessed as compound remaining at 50 mg/ml after 30 mins
Assay type: ADME, cell-free
Details: read-out: Stability

| remaining at 0.5 h [%] | SMILES |
| --- | --- |
| 101 | CCCc1nc(C(C)(C)O)c(C(=O)NCCCCCC[N+](=O)[O-])n1Cc1ccc(-c2ccccc2C2=NNNN2)cc1 |
| 97.5 | CCCc1nc(C(C)(C)O)c(C(=O)NCCCCCCC(=O)O)n1Cc1ccc(-c2ccccc2C2=NNNN2)cc1 |
| 96.3 | CCCc1nc(C(C)(C)O)c(C(=O)OCc2c[nH]c(=O)[nH]c2=O)n1Cc1ccc(-c2ccccc2C2=NNNN2)cc1 |
| 100 | CCCc1nc(C(C)(C)O)c(C(=O)OCCCCCC[N+](=O)[O-])n1Cc1ccc(-c2ccccc2C2=NNNN2)cc1 |
| 81.1 | CCCc1nc(C(C)(C)O)c(C(=O)OCCCCCCC(=O)OCC)n1Cc1ccc(-c2ccccc2C2=NNNN2)cc1 |
| 98.8 | CCCc1nc(C(C)(C)O)c(C(=O)OCCCCCCC(=O)O)n1Cc1ccc(-c2ccccc2C2=NNNN2)cc1 |
| 98.9 | CCCc1nc(C(C)(C)O)c(C(=O)NCCNCCO)n1Cc1ccc(-c2ccccc2C2=NNNN2)cc1 |
| 90.2 | CCCCCCCCOC(=O)c1c(C(C)(C)O)nc(CCC)n1Cc1ccc(-c2ccccc2C2=NNNN2)cc1 |
